Literature values, collected in PMC8764166, “Phenolic-Rich Plant Extracts With Antimicrobial Activity: An Alternative to Food Preservatives and Biocides?” (Frontiers in Microbiology, 2022).
Read-outs that look alike come from different tables or passages of the source.

How the values were obtained:
[1] = system: transmembrane peptidase sortase A, SrtA; set-up: method as in Wu et al. (2019); conditions: ref Wu et al. (2019)
S. aureus [2] = system: S. aureus; set-up: method as in Wu et al., 2016, 2019; conditions: ref Wu et al., 2016, 2019
S. aureus [3] = system: S. aureus; set-up: method as in Wu et al., 2016; conditions: ref Wu et al., 2016
Escherichia coli = conditions: ref Adamczak et al., 2020
B. subtilis = system: B. subtilis; set-up: method as in Wu et al., 2020; conditions: ref Wu et al., 2020
L. monocytogenes = system: L. monocytogenes; set-up: method as in Pernin et al., 2019; conditions: ref Pernin et al., 2019
DNA gyrase = system: DNA gyrase; set-up: method as in Plaper et al., 2003; conditions: ref Plaper et al., 2003
Bacillus cereus = system: Bacillus cereus; set-up: method as in Serra et al. (2008); conditions: 20 mg·L^−1 quercetin, in grape extract or as solution; ref Serra et al. (2008)
[4] = system: B. subtilis, E. coli, S. aureus, and S. typhimurium; set-up: method as in Dinesh Kumar et al., 2016; conditions: all test bacteria; ref Dinesh Kumar et al., 2016
Salmonella typhimurium = conditions: ref Phadungkit and Luanratana, 2006
[5] = system: biofilms with undesirable food spoiling or foodborne pathogenic microorganisms; set-up: method as in the references listed per substance; conditions: the references listed per substance

| Structure (SMILES) | sortase A (SrtA) inhibition [1] | S. aureus biofilm formation (S. aureus [2]) | S. aureus biofilm formation (S. aureus [2]; listed as coumaroyl-2-hydroxyquinic acid) | cytoplasmic membrane damage (S. aureus [3]) | MIC against E. coli (Escherichia coli) | intracellular metabolism (metabolomics) (B. subtilis) | mechanism of action against L. monocytogenes (L. monocytogenes) | DNA gyrase inhibition (DNA gyrase) | growth of Bacillus cereus (Bacillus cereus) | time after which antibacterial effect is lost [4] [h] | MIC against S. typhimurium (Salmonella typhimurium) | activity against biofilms [5] |
| --- | --- | --- | --- | --- | --- | --- | --- | --- | --- | --- | --- | --- |
| O=C(/C=C/c1ccc(O)cc1)OC1C(O)C(O)CC(O)(C(=O)O)C1O (stereo not drawn) [3-p-trans-coumaroyl-2-hydroxyquinic acid] | inhibiting the transmembrane peptidase sortase A, SrtA | – inhibits the biofilm formation of S. aureus by affecting the initial attachment phase of biofilm development | not only inhibits S. aureus biofilm formation, but also the attachment phase | – interaction with membrane lipid and protein, damage of cytoplasmic membrane with a significant membrane hyperpolarization, a loss of membrane integrity and severe morphological changes | – | – | – | – | – | – | – | – |
| O=C(/C=C/c1ccc(O)c(O)c1)O[C@@H]1C[C@](O)(C(=O)O)C[C@@H](O)[C@H]1O [Chlorogenic acid] | – | – | – | – | E. coli 0.5 g·L^−1 | – induction of the intracellular metabolic imbalance of the tricarboxylic acid cycle and glycolysis, leading to metabolic disorder and death | decrease in extracellular pH | – | – | – | – | – |
| O=c1c(O)c(-c2ccc(O)c(O)c2)oc2cc(O)cc(O)c12 [Quercetin] | – | – | – | – | E. coli 0.5 g·L^−1 | – | – | – DNA gyrase inhibition either by interaction of quercetin with DNA or with ATP binding site of gyrase | totally inhibited the growth of Bacillus cereus unlike a 20 mg·L^−1 quercetin solution | 2 to 9 | S. typhimurium 15.6 mg·L^−1 | inhibit formation or to eradicate biofilms |
